From patent US20070111258A1, “Compositions and methods for modulating the acute phase response” (priority 2005, published 2007)

Tests used:
human CREBH = assay: Cleavage of flag-tagged human CREBH stably expressed in H2.35 cells (Western blot, cell fractionation); type: cell-based
Experimental: FIG. 3 depicts the effects of ER stress on CREBH: proteolytic cleavage of CREBH to release its N-terminal fragment that translocates into the nucleus. (A) Illustration of transmembrane domains and lumenal domains of SREBP, ATF6, Luman and CREBH in human (hs), mouse (mm). The conserved residues for S1P and S2P recognition are highlighted. (B) Cleavage of CREBH in H2.35 cells under different stimuli. H2.35 cells stably expressing flag-tagged human CREBH were treated with 0.5 μg/ml BFA, 20 ng/ml TNFα, 40 ng/ml IL6, 5 mM DTT, 0.5 μM Tg or 5 μg/ml Tm for 8 hours. Untransfected H2.35 cells (lane 1) and the H2.35 cells that stably express human CREBH (lane 2) were cultured under normal conditions as control. Total cell lysates were collected for Western blot analysis by using an anti-flag monoclonal antibody (upper panel). Levels of α-actin were determined for control of protein loading (lower panel). (C) Cleavage of CREBH in H2.35 cells under Tm treatment for various time periods. The H2.35 cells stably expressing flag-tagged CREBH were cultured in the absence or presence of Tm (5 μg/ml) for 4, 8 or 12 hours. Membrane fractions were isolated from the total cell lysates, and were subjected to Western blot analysis of CREBH and calnexin, respectively. Nuclear fractions were isolated from the same total cell lysates and subjected to Western blot analysis of CREBH and PARP, respectively. (D) Translocation of CREBH in COS7 cells. COS7 cells were co-transfected with a construct expressing flag-tagged full-length CREBH (CREBH-F) or CREBH-ΔC and a construct expressing KDEL-RFP, and were then cultured in the absence or presence of Tm (5 μg/ml) for 4 hours. Cells were then stained with FITC-conjugated anti-flag antibody and subjected to Zeiss Confocal Microscope analysis. Magnification: 40×10.
For analysis of expression and cleavage of CREBH protein, total cell lysates were prepared from H2.35 cells or COS7 cells using Nonidet P-40 lysis buffer (1% NP-40, 50 mM Tris-HCl at pH 7.5, 150 mM NaCl, 0.05% SDS) supplemented with protease inhibitors (Complete Mini from Roche Applied Science), 0.1 mM sodium vanadate, and 1 mM sodium fluoride. Membrane and nuclear fractions of cell lysates were isolated as previously described (Dignam et al., 1983). The total cell lysate, membrane and nuclear fractions were subjected to SDS-PAGE and then analyzed by Western blot using anti-flag monoclonal antibody or other antibodies. Immunoprecipitation and Western blot analyses of ATF6 and CREBH interaction in 293T cells expressing flag-tagged CREBH protein were performed by using anti-human ATF6 and anti-flag antibodies. Total cell lysates from 293T cells transfected with control vector or pFlag-CREBH-ΔC were immunoprecipitated with anti-human ATF6 polyclonal antibody and anti-flag antibody, respectively. The immunoprecipitated cell lysates were then subjected to Western blotting by using anti-flag antibody to detect CREBH protein and using anti-human ATF6 antibody to detect ATF6 protein, respectively. The same total cell lysates were subjected to Western blotting by using anti-flag antibody to detect expression of CREBH protein in the transfected cells. For detecting endogenous CREBH protein in the liver extracts, an anti-mouse CREBH polyclonal antibody was raised in rabbits against a purified mouse CREBH peptide composed of amino acids 92-109 [[…]]. The rabbit anti-human ATF6 polyclonal antibody was generated in the inventor's laboratory. The anti-mouse calnexin monoclonal antibody and the anti-mouse monoclonal PRAP antibody were purchased from Stressgen Biotechnologies (Victoria, BC, Canada) and BD Bioscience (Mountain View, Calif., USA), respectively.

CREBH = assay: Endogenous CREBH cleavage in mouse liver (Western blot); type: in vivo; conditions: wild-type mice; 24 hours after i.p. injection
Experimental: (F-G) Expression of endogenous CREBH protein in the livers of wild-type (F) and CREBH knockdown (G) mice challenged with IL6 plus IL1β, LPS or Tm. Wild-type or CREBH knockdown mice of 3-month old were intraperitoneally injected with IL6 (25 ng/gram body weight) plus IL1β (25 ng/gram body weight), LPS (3 μg/gram body weight) or Tm (2 μg/gram body weight). Mice were injected with the same volume of NaCL solution as controls. Liver protein extracts were prepared at 24 hours after injection. Western blot analysis was performed by using a polyclonal anti-mouse CREBH antibody. The blots were reprobed with anti-α-actin antibody for loading controls.

## tunicamycin [Tm]
Human CREBH; H2.35 cells stably expressing flag-tagged human CREBH, 8 hours, BFA 0.5 μg/ml, TNFα 20 ng/ml, IL6 40 ng/ml, DTT 5 mM, Tg 0.5 μM, Tm 5 μg/ml
  cleavage of CREBH to release a 50 kD N-terminal fragment: significantly induced cleavage of CREBH
Human CREBH; Tm 5 μg/ml for 4, 8 or 12 hours
  amount of 50 kD N-terminal cleaved CREBH fragment in the nuclear fraction: gradually increased with increasing times of Tm treatment
CREBH
  cleaved form of CREBH in the livers: cleaved form of CREBH was increased
